From ChEMBL document CHEMBL1127546, “New thiol inhibitors of neutral endopeptidase EC 3.4.24.11: synthesis and enzyme active-site recognition” (J Med Chem, 1994)

What was measured:
Neprilysin [1] = target: T1, Neprilysin (Oryctolagus cuniculus, UniProt P08049); assay: Tested for binding affinity against neutral endopeptidase (NEP)
T1 sequence (P08049 whole entry): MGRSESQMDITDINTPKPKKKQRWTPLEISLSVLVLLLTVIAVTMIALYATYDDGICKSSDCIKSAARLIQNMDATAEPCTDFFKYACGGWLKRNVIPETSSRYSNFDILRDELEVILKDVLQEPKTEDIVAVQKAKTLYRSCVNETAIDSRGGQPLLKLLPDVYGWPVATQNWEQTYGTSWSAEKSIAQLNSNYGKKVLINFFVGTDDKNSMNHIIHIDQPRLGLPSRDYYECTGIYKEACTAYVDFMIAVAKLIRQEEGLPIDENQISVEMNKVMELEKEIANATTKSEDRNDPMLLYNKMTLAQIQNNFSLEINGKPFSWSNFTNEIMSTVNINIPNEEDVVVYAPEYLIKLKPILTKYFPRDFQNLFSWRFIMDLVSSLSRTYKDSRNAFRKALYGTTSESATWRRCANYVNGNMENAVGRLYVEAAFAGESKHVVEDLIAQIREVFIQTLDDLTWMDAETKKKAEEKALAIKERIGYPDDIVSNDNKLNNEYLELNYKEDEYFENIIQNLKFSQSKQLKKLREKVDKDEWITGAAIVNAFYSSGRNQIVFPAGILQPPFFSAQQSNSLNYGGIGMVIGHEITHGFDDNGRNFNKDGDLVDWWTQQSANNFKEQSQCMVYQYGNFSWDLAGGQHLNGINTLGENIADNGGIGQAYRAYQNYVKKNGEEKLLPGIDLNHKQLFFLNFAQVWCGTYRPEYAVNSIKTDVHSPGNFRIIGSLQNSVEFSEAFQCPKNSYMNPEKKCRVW

[2] = target: T2, Angiotensin-converting enzyme (Homo sapiens, UniProt P12821); assay: Tested for inhibitory potency against Angiotensin I converting enzyme
T2 sequence (P12821 whole entry): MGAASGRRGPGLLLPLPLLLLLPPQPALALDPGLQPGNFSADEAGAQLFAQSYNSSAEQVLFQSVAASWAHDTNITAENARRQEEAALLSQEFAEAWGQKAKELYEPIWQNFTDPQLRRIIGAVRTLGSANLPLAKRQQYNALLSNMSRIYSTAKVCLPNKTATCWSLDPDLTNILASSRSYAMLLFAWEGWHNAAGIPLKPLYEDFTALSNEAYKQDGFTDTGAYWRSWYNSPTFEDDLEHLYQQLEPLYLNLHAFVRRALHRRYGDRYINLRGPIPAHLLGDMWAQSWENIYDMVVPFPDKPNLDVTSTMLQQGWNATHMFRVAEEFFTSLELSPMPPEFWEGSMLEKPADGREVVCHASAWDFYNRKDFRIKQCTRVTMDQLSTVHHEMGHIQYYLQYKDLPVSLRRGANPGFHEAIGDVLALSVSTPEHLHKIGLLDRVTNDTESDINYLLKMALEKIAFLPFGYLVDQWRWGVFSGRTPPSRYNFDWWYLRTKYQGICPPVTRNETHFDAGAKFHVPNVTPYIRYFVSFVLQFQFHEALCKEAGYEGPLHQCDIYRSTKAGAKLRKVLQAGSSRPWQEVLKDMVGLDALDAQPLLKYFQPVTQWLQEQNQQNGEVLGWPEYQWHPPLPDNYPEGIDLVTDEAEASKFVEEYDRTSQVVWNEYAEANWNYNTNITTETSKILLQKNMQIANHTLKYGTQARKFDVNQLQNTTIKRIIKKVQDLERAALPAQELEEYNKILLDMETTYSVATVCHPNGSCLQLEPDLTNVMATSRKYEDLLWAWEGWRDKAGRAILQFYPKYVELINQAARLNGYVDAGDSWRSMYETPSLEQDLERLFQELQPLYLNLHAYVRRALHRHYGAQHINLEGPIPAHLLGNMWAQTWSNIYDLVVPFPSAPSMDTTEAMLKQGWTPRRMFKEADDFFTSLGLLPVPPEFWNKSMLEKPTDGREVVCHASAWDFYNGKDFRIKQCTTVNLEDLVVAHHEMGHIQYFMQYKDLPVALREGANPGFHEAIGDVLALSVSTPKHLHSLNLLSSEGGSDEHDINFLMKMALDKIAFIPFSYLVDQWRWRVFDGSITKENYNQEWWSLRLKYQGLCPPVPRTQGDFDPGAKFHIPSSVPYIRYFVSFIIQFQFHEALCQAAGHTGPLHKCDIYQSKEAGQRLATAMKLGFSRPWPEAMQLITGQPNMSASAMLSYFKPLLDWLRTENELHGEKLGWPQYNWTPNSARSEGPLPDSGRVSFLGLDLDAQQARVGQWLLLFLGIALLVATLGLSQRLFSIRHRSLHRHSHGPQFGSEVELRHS

Neprilysin [3] = target: T1, Neprilysin; assay: Tested for inhibitory potency against neutral endopeptidase (NEP)
[4] = target: T2, Angiotensin-converting enzyme; assay: Tested for inhibitory potency against Angiotensin I Converting Enzyme
Thermolysin = target: T3, Thermolysin (Bacillus thermoproteolyticus, UniProt P00800); assay: Tested for binding affinity against Thermolysin; parameters: species or system Bacteria
T3 sequence (P00800 whole entry): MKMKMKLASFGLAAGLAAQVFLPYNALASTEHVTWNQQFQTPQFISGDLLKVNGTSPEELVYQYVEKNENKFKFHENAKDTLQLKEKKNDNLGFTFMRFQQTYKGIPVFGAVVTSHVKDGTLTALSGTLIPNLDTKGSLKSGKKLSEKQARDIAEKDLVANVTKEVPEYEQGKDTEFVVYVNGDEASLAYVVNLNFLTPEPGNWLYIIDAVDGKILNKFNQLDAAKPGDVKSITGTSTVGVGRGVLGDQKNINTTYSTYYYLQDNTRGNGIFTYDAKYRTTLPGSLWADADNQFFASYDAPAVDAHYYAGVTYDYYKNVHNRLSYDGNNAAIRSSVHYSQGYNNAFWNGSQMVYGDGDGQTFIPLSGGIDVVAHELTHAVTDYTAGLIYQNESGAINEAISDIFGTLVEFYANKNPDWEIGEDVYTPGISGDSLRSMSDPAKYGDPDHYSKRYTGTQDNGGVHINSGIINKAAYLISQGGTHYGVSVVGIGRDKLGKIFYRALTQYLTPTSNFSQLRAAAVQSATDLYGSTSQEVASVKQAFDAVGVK

| Structure (SMILES) | IC50 (Neprilysin [3]) | IC50 [4] | also measured |
| --- | --- | --- | --- |
| O=C(O)C(CCc1ccccc1)N[C@@H](Cc1ccccc1)C(=O)NC[C@H](O)C(=O)O (stereo partly specified) | – | – | Ki (Neprilysin [1]): 11 nM |
| CC(NC(=O)C(Cc1ccccc1)CC(S)Cc1ccccc1)C(=O)O (stereo unspecified) | 190 nM | – | IC50 [2]: 3800 nM |
| O=C(NC(Cc1ccc(O)cc1)C(=O)O)C(Cc1ccccc1)CC(S)Cc1ccccc1 (stereo unspecified) | 150 nM | 2400 nM | – |
| CC(C)C[C@H](NC(CCc1ccccc1)C(=O)O)C(=O)N[C@@H](Cc1c[nH]c2ccccc12)C(=O)O (stereo partly specified) | – | – | Ki (Thermolysin): 50 nM |
| O=C(O)CCNC(=O)C(Cc1ccccc1)CC(Cc1ccccc1)C(=O)O (stereo unspecified) | 18 nM | – | – |
| CCC(C)C(CC(S)Cc1ccccc1)C(=O)O (stereo unspecified) | 250 nM | 4000 nM | – |
| CCC(C)C(S)CC(C(=O)NC(Cc1ccc(O)cc1)C(N)=O)C(C)CC (stereo unspecified) | 360 nM | 4000 nM | – |
| CCC(C)C(S)CC(C(=O)NC(Cc1ccc(O)cc1)C(=O)O)C(C)CC (stereo unspecified) | 380 nM | 3400 nM | – |
| O=C(O)C1CCCN1C(=O)C(Cc1ccccc1)CC(S)Cc1ccccc1 (stereo unspecified) | 320 nM | 3600 nM | – |
| O=C(O)CCNC(=O)C(Cc1ccccc1)CC(S)Cc1ccccc1 (stereo unspecified) | 290 nM | 3500 nM | – |
| CCC(C)C(S)CC(Cc1ccccc1)C(=O)NC(Cc1ccc(O)cc1)C(N)=O (stereo unspecified) | 350 nM | 3500 nM | – |
| CCC(C)C(CC(S)CCc1ccccc1)C(=O)NC(Cc1ccc(O)cc1)C(=O)O (stereo unspecified) | 260 nM | 2900 nM | – |
| CC(NC(=O)C(Cc1ccccc1)CC(S)c1ccccc1)C(=O)O (stereo unspecified) | 130 nM | 3500 nM | – |
| CCC(C)C1CC(Cc2ccccc2)SC1=O (stereo unspecified) | 220 nM | 2300 nM | – |
| CC(C)CC(S)C(Cc1ccccc1)C(=O)NC(C)C(=O)O (stereo unspecified) | 3.6 nM | – | IC50 (Thermolysin): 4000 nM |
| CCC(C)C(S)CC(Cc1ccccc1)C(=O)N[C@H](Cc1ccc(O)cc1)C(=O)O (stereo partly specified) | 320 nM | 8000 nM | – |
| CCC(C)C(CC(S)Cc1ccccc1)C(=O)NC(Cc1ccc(O)cc1)C(=O)O (stereo unspecified) | 220 nM | 800 nM | – |
| CCC(C)C(CC(S)Cc1ccccc1)C(=O)N1CCCC1C(=O)O (stereo unspecified) | 350 nM | 2800 nM | – |
| CCC(C)C(S)CC(Cc1ccccc1)C(=O)N[C@@H](Cc1ccc(O)cc1)C(=O)O (stereo partly specified) | 270 nM | 4400 nM | – |
| O=C(O)CNC(=O)[C@@H](CS)Cc1ccccc1 [THIORPHAN] | – | – | IC50 (Thermolysin): 1800 nM |
